pIC50: −log10 of the molar value.
system: HBsAg; assay: HBsAg assay (CLIA) in HepG2.2.15 cells; format: cell-based, HBV; details: Hepatitis B virus, HepG2.2.15, read-out: IC50 (HBsAg assay)
Method: HepG2.2.15 cells (Acs et al. Proc Natl Acad Sci USA, 84, (1987), 4641-4), a constitutively HBV-expressing cell line were cultured in DMEM+Glutamax-I medium (Invitrogen, Carlsbad, Calif., USA), supplemented with 10% fetal bovine serum (Invitrogen) and G418 (Invitrogen) at a final concentration of 200 mg/L and maintained in 5% CO2 at 37° C.
HepG2.2.15 cells were seeded in duplicate into white, 96-well plates at 1.5×10^4 cells/well. The cells were treated with a three-fold serial dilution series of the compounds in DMSO. The final DMSO concentration in all wells was 1% and DMSO was used as no drug control.
The HBsAg chemiluminescence immunoassay (CLIA) kit (Autobio Diagnostics Co., Zhengzhou, China, Catalog number: CL0310-2) was used to measure the levels of secreted HBV antigens semi-quantitatively. For the detection 50 μL/well culture supernatant was used and HBsAg was quantified using HBsAg chemiluminescence immunoassay (CLIA) kit (Autobio Diagnostics Co., Zhengzhou, China, Catalog number: CL0310-2), 50 μL of the supernatant was transferred to the CLIA assay plate and 50 μL of enzyme conjugate reagent was added into each well. The plates were sealed and gently agitated for 1 hour at room temperature. The supernatant-enzyme-mixture was discarded and wells were washed 6 times with 300 μL of PBS. The residual liquid was removed by plating the CLIA plate […] on absorbent tissue paper. 25 μL of substrates A and B were added to each well. Luminance was measured using a luminometer (Mithras LB 940 Multimode Microplate Reader) after 10 minutes incubation. Dose-response curves were generated and the IC50 value was extrapolated by using the E-WorkBook Suite (ID Business Solutions Ltd., Guildford, UK). The IC50 was defined as the compound concentration (or conditioned media log dilution) at which HBsAg secretion was reduced by 50% compared to the no drug control.
The compounds according to formula I were tested for their capacity to inhibit HBsAg as described herein.

Structure (SMILES)	pIC50
CCOC(=O)c1ccc(N2CCc3nc(-c4ccccn4)ncc3C2)cc1 [Example 31, ethyl 4-[2-(2-pyridyl)-7,8-dihydro-5H-pyrido[4,3-d]pyrimidin-6-yl]benzoate]	4.77
O=C(O)c1ccc(N2CCc3nc(-c4ccccn4)ncc3C2)cc1 [Example 32, 4-[2-(2-pyridyl)-7,8-dihydro-5H-pyrido[4,3-d]pyrimidin-6-yl]benzoic acid]	5.01
O=[N+]([O-])c1ccccc1N1CCc2nc(-c3ccccn3)ncc2C1 [Example 33, 6-(2-nitrophenyl)-2-(2-pyridyl)-7,8-dihydro-5H-pyrido[4,3-d]pyrimidine]	6.41
COc1cc([N+](=O)[O-])ccc1N1CCc2nc(-c3ccccn3)ncc2C1 [Example 34, 6-(2-methoxy-4-nitro-phenyl)-2-(2-pyridyl)-7,8-dihydro-5H-pyrido[4,3-d]pyrimidine]	6.06
c1ccc(-c2ncc3c(n2)CCN(c2ccccn2)C3)nc1 [Example 35, 2,6-bis(2-pyridyl)-7,8-dihydro-5H-pyrido[4,3-d]pyrimidine]	5.09
Clc1ccc(N2CCc3nc(-c4ccccn4)ncc3C2)nc1 [Example 36, 6-(5-chloro-2-pyridyl)-2-(2-pyridyl)-7,8-dihydro-5H-pyrido[4,3-d]pyrimidine]	5.81
c1ccc(-c2ncc3c(n2)CCN(c2ncccn2)C3)nc1 [Example 37, 2-(2-pyridyl)-6-pyrimidin-2-yl-7,8-dihydro-5H-pyrido[4,3-d]pyrimidine]	5.35
Fc1ccc(N2CCc3nc(-c4ccccn4)ncc3C2)c(OCc2ccccc2)c1 [Example 38, 6-(2-benzyloxy-4-fluoro-phenyl)-2-(2-pyridyl)-7,8-dihydro-5H-pyrido[4,3-d]pyrimidine]	4.75
c1ccc(-c2ncc3c(n2)CCN(c2cccnc2)C3)nc1 [Example 39, 2-(2-pyridyl)-6-(3-pyridyl)-7,8-dihydro-5H-pyrido[4,3-d]pyrimidine]	5.04
Cc1cc(F)cc(N2CCc3nc(-c4ccccn4)ncc3C2)c1 [Example 40, 6-(3-fluoro-5-methyl-phenyl)-2-(2-pyridyl)-7,8-dihydro-5H-pyrido[4,3-d]pyrimidine]	6.17
Fc1cc(Br)cc(N2CCc3nc(-c4ncccn4)ncc3C2)c1 [Example 41, 6-(3-bromo-5-fluoro-phenyl)-2-pyrimidin-2-yl-7,8-dihydro-5H-pyrido[4,3-d]pyrimidine]	6.30
Fc1cc(C2CC2)cc(N2CCc3nc(-c4ncccn4)ncc3C2)c1 [Example 42, 6-(3-cyclopropyl-5-fluoro-phenyl)-2-pyrimidin-2-yl-7,8-dihydro-5H-pyrido[4,3-d]pyrimidine]	6.25
FC(F)(F)Oc1cccc(N2CCc3nc(-c4ncccn4)ncc3C2)c1 [Example 43, 2-pyrimidin-2-yl-6-[3-(trifluoromethoxy)phenyl]-7,8-dihydro-5H-pyrido[4,3-d]pyrimidine]	5.73
COCCCOc1ccc(N2CCc3nc(-c4ccccn4)ncc3C2)cc1OC [Example 44, 6-[3-methoxy-4-(3-methoxypropoxy)phenyl]-2-(2-pyridyl)-7,8-dihydro-5H-pyrido[4,3-d]pyrimidine]	4.72
Clc1ccc(N2CCc3nc(-c4ccccn4)ncc3C2)cc1 [Example 45, 6-(4-chlorophenyl)-2-(2-pyridyl)-7,8-dihydro-5H-pyrido[4,3-d]pyrimidine]	5.49
c1ccc(COc2ccc(N3CCc4nc(-c5ccccn5)ncc4C3)cc2)cc1 [Example 46, 6-(4-benzyloxyphenyl)-2-(2-pyridyl)-7,8-dihydro-5H-pyrido[4,3-d]pyrimidine]	5.06
Cc1ccc(N2CCc3nc(-c4ccccn4)ncc3C2)cc1 [Example 47, 6-(p-tolyl)-2-(2-pyridyl)-7,8-dihydro-5H-pyrido[4,3-d]pyrimidine]	4.94
CC1CN(c2ccc([N+](=O)[O-])cc2)Cc2cnc(-c3ccccn3)nc21 (centres unmarked) [Example 48, 8-methyl-6-(4-nitrophenyl)-2-(2-pyridyl)-7,8-dihydro-5H-pyrido[4,3-d]pyrimidine]	5.86
Clc1ccc(N2CCc3nc(-c4ccccn4)ncc3C2)cc1Cl [Example 49, 6-(3,4-dichlorophenyl)-2-(2-pyridyl)-7,8-dihydro-5H-pyrido[4,3-d]pyrimidine]	5.97

Structure (SMILES)	pIC50
COc1ccc(N2CCc3nc(-c4ccccn4)ncc3C2)cc1 [Example 50, 6-(4-methoxyphenyl)-2-(2-pyridyl)-7,8-dihydro-5H-pyrido[4,3-d]pyrimidine]	4.66
Fc1ccc(N2CCc3nc(-c4ccccn4)ncc3C2)cc1Br [Example 51, 6-(3-bromo-4-fluoro-phenyl)-2-(2-pyridyl)-7,8-dihydro-5H-pyrido[4,3-d]pyrimidine]	5.27
Fc1cc(N2CCc3nc(-c4ccccn4)ncc3C2)ccc1Br [Example 52, 6-(4-bromo-3-fluoro-phenyl)-2-(2-pyridyl)-7,8-dihydro-5H-pyrido[4,3-d]pyrimidine]	5.71
Fc1cc(N2CCc3nc(-c4ccccn4)ncc3C2)ccc1OCc1ccccc1 [Example 53, 6-(4-benzyloxy-3-fluoro-phenyl)-2-(2-pyridyl)-7,8-dihydro-5H-pyrido[4,3-d]pyrimidine]	5.81
CCOc1ccc(N2CCc3nc(-c4ccccn4)ncc3C2)cc1F [Example 54, 6-(4-ethoxy-3-fluoro-phenyl)-2-(2-pyridyl)-7,8-dihydro-5H-pyrido[4,3-d]pyrimidine]	5.41
CCCOc1ccc(N2CCc3nc(-c4ccccn4)ncc3C2)cc1F [Example 55, 6-(3-fluoro-4-propoxy-phenyl)-2-(2-pyridyl)-7,8-dihydro-5H-pyrido[4,3-d]pyrimidine]	5.93
COCCCOc1ccc(N2CCc3nc(-c4ccccn4)ncc3C2)cc1F [Example 56, 6-[3-fluoro-4-(3-methoxypropoxy)phenyl]-2-(2-pyridyl)-7,8-dihydro-5H-pyrido[4,3-d]pyrimidine]	5.74
COCCOc1ccc(N2CCc3nc(-c4ccccn4)ncc3C2)cc1OC [Example 57, 6-[3-methoxy-4-(2-methoxyethoxy)phenyl]-2-(2-pyridyl)-7,8-dihydro-5H-pyrido[4,3-d]pyrimidine]	5.66
COCCOc1cc(N2CCc3nc(-c4ccccn4)ncc3C2)ccc1OC [Example 58, 6-[4-methoxy-3-(2-methoxyethoxy)phenyl]-2-(2-pyridyl)-7,8-dihydro-5H-pyrido[4,3-d]pyrimidine]	4.69
COc1ccc(N2CCc3nc(-c4ccccn4)ncc3C2)cc1OC [Example 59, 6-(3,4-dimethoxyphenyl)-2-(2-pyridyl)-7,8-dihydro-5H-pyrido[4,3-d]pyrimidine]	5.04
COc1cc(N2CCc3nc(-c4ccccn4)ncc3C2)ccc1C#N [Example 60, 2-methoxy-4-[2-(2-pyridyl)-7,8-dihydro-5H-pyrido[4,3-d]pyrimidin-6-yl]benzonitrile]	6.43
COc1ccc(N2CCc3nc(-c4ccccn4)ncc3C2)c(F)c1F [Example 61, 6-(2,3-difluoro-4-methoxy-phenyl)-2-(2-pyridyl)-7,8-dihydro-5H-pyrido[4,3-d]pyrimidine]	5.52
COc1cc(N2CCc3nc(-c4ccccn4)ncc3C2)ccc1Cl [Example 62, 6-(4-chloro-3-methoxy-phenyl)-2-(2-pyridyl)-7,8-dihydro-5H-pyrido[4,3-d]pyrimidine]	5.87
FC(F)Oc1cccc(N2CCc3nc(-c4ncccn4)ncc3C2)c1 [Example 63, 6-[3-(difluoromethoxy)phenyl]-2-pyrimidin-2-yl-7,8-dihydro-5H-pyrido[4,3-d]pyrimidine]	5.71
Fc1cc(N2CCc3nc(-c4ccccn4)ncc3C2)cc(F)c1OCc1ccccc1 [Example 64, 6-(4-benzyloxy-3,5-difluoro-phenyl)-2-(2-pyridyl)-7,8-dihydro-5H-pyrido[4,3-d]pyrimidine]	5.74
COc1cc(N2CCc3nc(-c4ccccn4)ncc3C2)ccc1C(=O)O [Example 65, 2-methoxy-4-[2-(2-pyridyl)-7,8-dihydro-5H-pyrido[4,3-d]pyrimidin-6-yl]benzoic acid]	4.73
CCOc1cc(N2CCc3nc(-c4ccccn4)ncc3C2)ccc1C(=O)O [Example 66, 2-ethoxy-4-[2-(2-pyridyl)-7,8-dihydro-5H-pyrido[4,3-d]pyrimidin-6-yl]benzoic acid]	4.88
CCCCOc1cc(N2CCc3nc(-c4ccccn4)ncc3C2)ccc1C(=O)O [Example 67, 2-butoxy-4-[2-(2-pyridyl)-7,8-dihydro-5H-pyrido[4,3-d]pyrimidin-6-yl]benzoic acid]	5.11
COc1nc(N2CCc3nc(-c4ccccn4)ncc3C2)ncc1Cl [Example 68, 6-(5-chloro-4-methoxy-pyrimidin-2-yl)-2-(2-pyridyl)-7,8-dihydro-5H-pyrido[4,3-d]pyrimidine]	5.83
